# In US20240158446A1, “CYCLIC COMPOUND HAVING SELECTIVE INHIBITORY ACTION ON KRAS OVER HRAS AND NRAS” (CHUGAI SEIYAKU KABUSHIKI KAISHA, priority 2021, published 2024):
# Where a SMILES comes first, the peptide text is derived from it. Bridges are numbered along the chain shown (N, C = ends). [ ]: non-standard residue; d: D form. The star is where a group is joined. hPhe(3-Cl-4-CF3) = N[C@@H](CCc1ccc(C(F)(F)F)c(Cl)c1)C(=O)O; NPrPhe(4-CF3) = CCCN[C@@H](Cc1ccc(C(F)(F)F)cc1)C(=O)O; NMeGly(cPent) = CN[C@H](C(=O)O)C1CCCC1; NEtLeu = CCN[C@@H](CC(C)C)C(=O)O; NMeD = CN[C@@H](CC(=O)O)C(=O)O; Morpholide = C1CN(*)CCO1; Ac4c = NC1(C(=O)O)CCC1; Sar = CNCC(=O)O
# Columns and labels:
# [1] = system: human lung cancer strain NCI-H441; experiment: cells; settings: NCI-H441, 96 h, read-out: NCI-H441 IC50 (nM), NCI-H441 cell proliferation, 4 days, CellTiter-Glo;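 also: cell proliferation inhibition after four days measured by CellTiter-Glo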
# [2] = molecular target: GDP-bound HRAS wild-type protein (Homo sapiens, UniProt P01112); experiment: Binding to HRAS by surface plasmon resonance (SPR), Single Cycle Kinetics; settings: ratio of KD for GDP-bound HRAS wild-type protein to KD for KRAS, SPR
# [3] = molecular target: GDP-bound NRAS wild-type protein (Homo sapiens, UniProt P01111); experiment: Binding to NRAS by surface plasmon resonance (SPR), Single Cycle Kinetics; settings: ratio of KD for GDP-bound NRAS wild-type protein to KD for KRAS, SPR
# [4] = molecular target: GDP-bound KRAS wild-type protein (Homo sapiens, UniProt P01116); experiment: Binding to KRAS by surface plasmon resonance (SPR), Single Cycle Kinetics; settings: SPR, Single Cycle Kinetics, GDP-bound KRAS wild-type protein; read-out: KRAS KD
# Chain of GDP-bound KRAS wild-type protein (P01116 whole entry): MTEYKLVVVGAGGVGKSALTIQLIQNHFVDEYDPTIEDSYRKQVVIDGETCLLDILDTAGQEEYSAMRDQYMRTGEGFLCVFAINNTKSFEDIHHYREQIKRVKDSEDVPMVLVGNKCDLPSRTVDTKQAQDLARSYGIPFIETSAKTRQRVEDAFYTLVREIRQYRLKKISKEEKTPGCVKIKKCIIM
# Chain of GDP-bound NRAS wild-type protein (P01111 whole entry): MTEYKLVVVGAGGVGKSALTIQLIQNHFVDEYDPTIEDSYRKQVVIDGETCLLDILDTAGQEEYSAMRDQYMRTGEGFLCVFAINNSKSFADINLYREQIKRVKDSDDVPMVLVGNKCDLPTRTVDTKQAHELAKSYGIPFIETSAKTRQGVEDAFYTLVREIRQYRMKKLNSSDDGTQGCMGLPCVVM
# Chain of GDP-bound HRAS wild-type protein (P01112 whole entry): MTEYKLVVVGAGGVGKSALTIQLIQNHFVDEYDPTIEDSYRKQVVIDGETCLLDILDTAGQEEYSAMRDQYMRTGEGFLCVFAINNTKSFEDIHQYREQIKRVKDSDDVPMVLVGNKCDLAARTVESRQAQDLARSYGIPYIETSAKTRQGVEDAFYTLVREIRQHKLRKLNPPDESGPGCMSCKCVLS
Structure (SMILES),IC50 [1],HRAS/KRAS (KD ratio) [2],NRAS/KRAS (KD ratio) [3],Kd [4]
CCCN(C)C(=O)[C@@H]1CC(=O)N(C)[C@@H](COCC)C(=O)N[C@@H]([C@@H](C)CC)C(=O)N(C)CC(=O)N(C)[C@H]2C/C=C\CCN(C2=O)[C@@H](Cc2ccc(C(F)(F)F)cc2)C(=O)N(C)CC(=O)N[C@@H](CCc2ccc(C(F)(F)F)c(OC)c2)C(=O)N2C[C@H](OCC)C[C@H]2C(=O)NC2(CCC2)C(=O)N(C)[C@@H](C2CCCC2)C(=O)N1C [PP2015],5.6 nM,B (a compound having 3 or more and less than 10 is denoted as B),A (a compound having 10 or more and less than 20 is denoted as A),0.11 nM
CCCN1C(=O)CN(C)C(=O)CN(C)C(=O)[C@H]([C@@H](C)CC)NC(=O)[C@H](CC(C)C)N(CC)C(=O)C[C@@H](C(=O)N2CCOCC2)N(C)C(=O)[C@H](C2CCCC2)N(C)C(=O)C2(CCC2)NC(=O)[C@@H]2CCCN2C(=O)[C@H](CCc2ccc(C(F)(F)F)c(Cl)c2)NC(=O)CN(C)C(=O)[C@@H]1Cc1ccc(C(F)(F)F)cc1 [PP1946] ([NEtLeu]I[Sar][Sar][NPrPhe(4-CF3)][Sar][hPhe(3-Cl-4-CF3)]P[Ac4c][NMeGly(cPent)][NMeD]-Morpholide; lactam N-11),15.2 nM,C (A compound having a KD ratio of 0.1 or more and less than 3 is denoted as C),B (a compound having 3 or more and less than 10 is denoted as B),0.16 nM
CCC[C@H]1C(=O)N[C@@H]([C@@H](C)CC)C(=O)N(C)CC(=O)N(C)[C@H]2C/C=C\CCN(C2=O)[C@@H](Cc2ccc(C(F)(F)F)cc2)C(=O)N(C)CC(=O)N[C@@H](CCc2cc(F)c(C(F)(F)F)c(F)c2)C(=O)N2C[C@H](OCC)C[C@H]2C(=O)NC2(CC(F)(F)C2)C(=O)N(C)[C@@H](C2CCCC2)C(=O)N(C)[C@H](C(=O)N(C)CC)CC(=O)N1C [PP1735],2.2 nM,A (a compound having 10 or more and less than 20 is denoted as A),AA (a compound having 20 or more is denoted as AA),0.081 nM
CCCN(C)C(=O)[C@@H]1CC(=O)N(C)[C@@H](C2CC2)C(=O)N[C@@H]([C@@H](C)CC)C(=O)N(C)CC(=O)N(C)[C@H]2C/C=C\CCN(C2=O)[C@@H](Cc2ccc(C(F)(F)F)cc2)C(=O)N(C)CC(=O)N[C@@H](CCc2ccc(C(F)(F)F)c(OC)c2)C(=O)N2C[C@H](OCC)C[C@H]2C(=O)NC2(CC(C)(C)C2)C(=O)N(C)[C@@H](C2CCCC2)C(=O)N1C [PP1983],20.2 nM,A (a compound having 10 or more and less than 20 is denoted as A),AA (a compound having 20 or more is denoted as AA),0.14 nM
CCCOC[C@H]1C(=O)N[C@@H]([C@@H](C)CC)C(=O)N(C)CC(=O)N(C)[C@H]2C/C=C\CCN(C2=O)[C@@H](Cc2ccc(C(F)(F)F)cc2)C(=O)N(C)CC(=O)N[C@@H](CCc2cc(F)c(C(F)(F)F)c(F)c2)C(=O)N2C[C@H](F)C[C@H]2C(=O)NC2(CC(C)(C)C2)C(=O)N(C)[C@@H](C2CCCC2)C(=O)N(C)[C@H](C(=O)N(C)CCC)CC(=O)N1C [PP1698],5.1 nM,A (a compound having 10 or more and less than 20 is denoted as A),A (a compound having 10 or more and less than 20 is denoted as A),0.075 nM
CC[C@H](C)[C@@H]1NC(=O)[C@H](CC(F)F)N(C)C(=O)C[C@@H](C(=O)N(C)C)N(C)C(=O)[C@H](C2CCCC2)N(C)C(=O)C2(CC(C)(C)C2)NC(=O)[C@@H]2CC(F)(F)CN2C(=O)[C@H](CCc2cc(F)c(C(F)(F)F)c(F)c2)NC(=O)CN(C)C(=O)[C@H](Cc2ccc(C(F)(F)F)cc2)N2CC/C=C\C[C@@H](C2=O)N(C)C(=O)CN(C)C1=O [PP1709],3.8 nM,A (a compound having 10 or more and less than 20 is denoted as A),A (a compound having 10 or more and less than 20 is denoted as A),0.058 nM
CC[C@H](C)[C@@H]1NC(=O)[C@H](CC2CCC2)N(C)C(=O)C[C@@H](C(=O)N(C)C)N(C)C(=O)[C@H](C2CCCC2)N(C)C(=O)C2(CCC2)N(C)C(=O)[C@@H]2CCCN2C(=O)[C@H](CCc2cc(F)c(C(F)(F)F)c(F)c2)NC(=O)CN(C)C(=O)[C@H](Cc2ccc(C)cc2)N2CC/C=C\C[C@@H](C2=O)N(C)C(=O)CN(C)C1=O [PP1802],5.8 nM,B (a compound having 3 or more and less than 10 is denoted as B),A (a compound having 10 or more and less than 20 is denoted as A),0.082 nM
CCOC[C@H]1C(=O)N[C@@H]([C@@H](C)CC)C(=O)N(C)CC(=O)N(C)[C@H]2C/C=C\CCN(C2=O)[C@@H](Cc2ccc(C(F)(F)F)cc2)C(=O)N(C)CC(=O)N[C@@H](CCc2cc(F)c(C(F)(F)F)c(F)c2)C(=O)N2C[C@H](OCC)C[C@H]2C(=O)NC2(CC(C)(C)C2)C(=O)N(C)[C@@H](C2CCCC2)C(=O)N(C)[C@H](C(=O)N(C)CC)CC(=O)N1C [PP2032],8.1 nM,B (a compound having 3 or more and less than 10 is denoted as B),A (a compound having 10 or more and less than 20 is denoted as A),0.061 nM
CCCN(C)C(=O)[C@@H]1CC(=O)N(C)[C@@H](C)C(=O)N[C@@H]([C@@H](C)CC)C(=O)N(C)CC(=O)N(C)[C@H]2C/C=C\CCN(C2=O)[C@@H](Cc2ccc(C(F)(F)F)cc2)C(=O)N(C)CC(=O)N[C@@H](CCc2cc(F)c(C(F)(F)F)c(F)c2)C(=O)N2C[C@H](F)C[C@H]2C(=O)NC2(CC(C)(C)C2)C(=O)N(C)[C@@H](C2CCCC2)C(=O)N1C [PP1663],3.6 nM,A (a compound having 10 or more and less than 20 is denoted as A),AA (a compound having 20 or more is denoted as AA),0.038 nM
CC[C@H](C)[C@@H]1NC(=O)[C@H](CC2CC2)N(C)C(=O)C[C@@H](C(=O)N(C)C)N(C)C(=O)[C@H](C2CCCC2)N(C)C(=O)C2(CC(C)(C)C2)NC(=O)[C@@H]2C[C@H](C)CN2C(=O)[C@H](CCc2cc(F)c(C(F)(F)F)c(F)c2)NC(=O)CN(C)C(=O)[C@H](Cc2ccc(C(F)(F)F)cc2)N2CC/C=C\C[C@@H](C2=O)N(C)C(=O)CN(C)C1=O [PP1660],4.3 nM,A (a compound having 10 or more and less than 20 is denoted as A),A (a compound having 10 or more and less than 20 is denoted as A),0.11 nM
CCO[C@@H]1C[C@H]2C(=O)NC3(CC(C)(C)C3)C(=O)N(C)[C@@H](C3CCCC3)C(=O)N(C)[C@H](C(=O)N(C)C)CC(=O)N(C)[C@@H](CC3CC3)C(=O)N[C@@H]([C@@H](C)CC)C(=O)N(C)CC(=O)N(C)[C@H]3C/C=C\CCN(C3=O)[C@@H](Cc3ccc(C(F)(F)F)cc3)C(=O)N(C)CC(=O)N[C@@H](CCc3cc(F)c(Cl)c(F)c3)C(=O)N2C1 [PP1759],6.2 nM,A (a compound having 10 or more and less than 20 is denoted as A),A (a compound having 10 or more and less than 20 is denoted as A),0.15 nM
CCO[C@@H]1C[C@H]2C(=O)N(C)C3(CCC3)C(=O)N(C)[C@@H](C3CCCC3)C(=O)N(C)[C@H](C(=O)N(C)C)CC(=O)N(C)[C@@H](CC(C)C)C(=O)N[C@@H]([C@@H](C)CC)C(=O)N(C)CC(=O)N(C)[C@H]3C/C=C\CCN(C3=O)[C@@H](Cc3ccc(C)cc3)C(=O)N(C)CC(=O)N[C@@H](CCc3cc(F)c(C(F)(F)F)c(F)c3)C(=O)N2C1 [PP1790],1.7 nM,B (a compound having 3 or more and less than 10 is denoted as B),A (a compound having 10 or more and less than 20 is denoted as A),0.03 nM
CCO[C@@H]1C[C@H]2C(=O)NC3(CC(C)(C)C3)C(=O)N(C)[C@@H](C3CCCC3)C(=O)N(C)[C@H](CC)CC(=O)N(C)[C@@H](CC)C(=O)N[C@@H]([C@@H](C)CC)C(=O)N(C)CC(=O)N(C)[C@H]3C/C=C\CCN(C3=O)[C@@H](Cc3ccc(C(F)(F)F)cc3)C(=O)N(C)CC(=O)N[C@@H](CCc3cc(F)c(C(F)(F)F)c(F)c3)C(=O)N2C1 [PP1623],4.5 nM,A (a compound having 10 or more and less than 20 is denoted as A),A (a compound having 10 or more and less than 20 is denoted as A),0.19 nM
CCO[C@@H]1C[C@H]2C(=O)NC3(CC(F)(F)C3)C(=O)N(C)[C@@H](C(CC)CC)C(=O)N3CCC[C@@H]3CC(=O)N(C)[C@@H](CC)C(=O)N[C@@H]([C@@H](C)CC)C(=O)N(C)CC(=O)N(C)[C@H]3C/C=C\CCN(C3=O)[C@@H](Cc3ccc(C(F)(F)F)cc3)C(=O)N(C)CC(=O)N[C@@H](CCc3cc(F)c(C(F)(F)F)c(F)c3)C(=O)N2C1 [PP1608],70.1 nM,A (a compound having 10 or more and less than 20 is denoted as A),A (a compound having 10 or more and less than 20 is denoted as A),0.67 nM
